# Measured values: publication PMC6253949, “The Inhibitory Action of Kohamaic Acid A Derivatives on Mammalian DNA Polymerase β” (Molecules, 2008)
# Experiments:
# Format in all cases: biochemical
# Human DNA polymerase γ = biological target: T1, Human DNA polymerase γ (Homo sapiens, UniProt P54098); assay: DNA polymerase assay, human pol γ
# T1 construct: His tag; made in house; host or cells: baculovirus expression system (insect cells)
# T1 sequence (P54098 1-1239): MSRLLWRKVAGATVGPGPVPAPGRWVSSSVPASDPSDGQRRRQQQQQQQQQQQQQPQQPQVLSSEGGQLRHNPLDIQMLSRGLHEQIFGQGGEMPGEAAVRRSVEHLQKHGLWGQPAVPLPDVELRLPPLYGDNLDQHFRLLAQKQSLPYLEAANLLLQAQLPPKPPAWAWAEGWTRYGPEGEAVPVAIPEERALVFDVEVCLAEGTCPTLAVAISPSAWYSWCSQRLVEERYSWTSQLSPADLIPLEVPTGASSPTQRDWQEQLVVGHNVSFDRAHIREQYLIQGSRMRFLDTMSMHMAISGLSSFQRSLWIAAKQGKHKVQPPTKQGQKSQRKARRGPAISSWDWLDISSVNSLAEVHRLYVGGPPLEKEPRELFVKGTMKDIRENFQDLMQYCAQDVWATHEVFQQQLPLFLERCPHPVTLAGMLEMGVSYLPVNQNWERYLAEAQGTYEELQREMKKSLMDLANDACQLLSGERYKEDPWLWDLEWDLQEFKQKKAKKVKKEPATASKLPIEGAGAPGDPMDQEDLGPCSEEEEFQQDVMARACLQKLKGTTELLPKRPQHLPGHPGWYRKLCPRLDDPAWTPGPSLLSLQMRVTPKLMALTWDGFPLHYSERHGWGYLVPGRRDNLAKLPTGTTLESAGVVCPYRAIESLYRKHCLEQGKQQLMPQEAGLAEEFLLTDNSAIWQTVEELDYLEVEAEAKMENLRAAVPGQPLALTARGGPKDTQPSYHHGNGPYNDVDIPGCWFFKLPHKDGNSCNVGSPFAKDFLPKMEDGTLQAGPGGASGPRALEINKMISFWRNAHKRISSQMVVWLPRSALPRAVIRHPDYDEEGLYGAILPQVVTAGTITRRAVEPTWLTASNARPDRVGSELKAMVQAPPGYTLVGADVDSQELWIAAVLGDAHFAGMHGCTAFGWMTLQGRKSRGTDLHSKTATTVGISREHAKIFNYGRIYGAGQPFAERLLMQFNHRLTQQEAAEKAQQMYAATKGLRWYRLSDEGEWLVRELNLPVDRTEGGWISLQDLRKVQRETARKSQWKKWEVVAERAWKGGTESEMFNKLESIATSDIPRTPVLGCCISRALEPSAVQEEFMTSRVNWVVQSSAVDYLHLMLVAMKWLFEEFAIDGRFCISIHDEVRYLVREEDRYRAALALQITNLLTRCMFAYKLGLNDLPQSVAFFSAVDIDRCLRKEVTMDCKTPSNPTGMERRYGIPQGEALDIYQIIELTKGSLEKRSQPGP
# Excerpt: (§1) Pol α was purified from calf thymus by immuno-affinity column chromatography as described by Tamai et al.. Recombinant rat pol β was purified from E. coli JMpβ5 as described by Date et al.. The human pol γ catalytic gene was cloned into pFastBac. Histidine-tagged enzyme was expressed using the BAC-TO-BAC HT Baculovirus Expression System according to the supplier's manual (LIFE TECHNOLOGIES, MD, USA) and purified using ProBoundresin (Invitrogen Japan, Tokyo, Japan). Human pols δ and ε were purified by the nuclear fractionation of human peripheral blood cancer cells (Molt-4) using the second subunit of pols δ and ε-conjugated affinity column chromatography, respectively. Recombinant human pols η and ι tagged with His6 at their C-terminal were expressed in SF9 insect cells using the baculovirus expression system, and were purified as described previously. A truncated form of pol κ (i.e., hDINB1DC) with 6 x His-tags attached at the C-terminal was overproduced using the BAC-to-BAC Baculovirus Expression System kit (GIBCO BRL, MD, USA) and purified as described previously. […]
# (§2) For pols, poly(dA)/oligo(dT)12-18 (A/T = 2/1) and dTTP were used as the DNA template-primer and nucleotide (i.e., dNTP) substrate, respectively. […] Activity without the inhibitor was considered 100%, and the remaining activity at each concentration of the inhibitor was determined relative to this value. […]
# Human DNA polymerase ε = biological target: T2, Human DNA polymerase ε (Homo sapiens, UniProt Q07864); assay: DNA polymerase assay, human pol ε
# T2 construct: Human pols δ and ε were purified by the nuclear fractionation of human peripheral blood cancer cells (Molt-4); endogenous in cells; host or cells: Molt-4
# T2 sequence (Q07864 whole entry): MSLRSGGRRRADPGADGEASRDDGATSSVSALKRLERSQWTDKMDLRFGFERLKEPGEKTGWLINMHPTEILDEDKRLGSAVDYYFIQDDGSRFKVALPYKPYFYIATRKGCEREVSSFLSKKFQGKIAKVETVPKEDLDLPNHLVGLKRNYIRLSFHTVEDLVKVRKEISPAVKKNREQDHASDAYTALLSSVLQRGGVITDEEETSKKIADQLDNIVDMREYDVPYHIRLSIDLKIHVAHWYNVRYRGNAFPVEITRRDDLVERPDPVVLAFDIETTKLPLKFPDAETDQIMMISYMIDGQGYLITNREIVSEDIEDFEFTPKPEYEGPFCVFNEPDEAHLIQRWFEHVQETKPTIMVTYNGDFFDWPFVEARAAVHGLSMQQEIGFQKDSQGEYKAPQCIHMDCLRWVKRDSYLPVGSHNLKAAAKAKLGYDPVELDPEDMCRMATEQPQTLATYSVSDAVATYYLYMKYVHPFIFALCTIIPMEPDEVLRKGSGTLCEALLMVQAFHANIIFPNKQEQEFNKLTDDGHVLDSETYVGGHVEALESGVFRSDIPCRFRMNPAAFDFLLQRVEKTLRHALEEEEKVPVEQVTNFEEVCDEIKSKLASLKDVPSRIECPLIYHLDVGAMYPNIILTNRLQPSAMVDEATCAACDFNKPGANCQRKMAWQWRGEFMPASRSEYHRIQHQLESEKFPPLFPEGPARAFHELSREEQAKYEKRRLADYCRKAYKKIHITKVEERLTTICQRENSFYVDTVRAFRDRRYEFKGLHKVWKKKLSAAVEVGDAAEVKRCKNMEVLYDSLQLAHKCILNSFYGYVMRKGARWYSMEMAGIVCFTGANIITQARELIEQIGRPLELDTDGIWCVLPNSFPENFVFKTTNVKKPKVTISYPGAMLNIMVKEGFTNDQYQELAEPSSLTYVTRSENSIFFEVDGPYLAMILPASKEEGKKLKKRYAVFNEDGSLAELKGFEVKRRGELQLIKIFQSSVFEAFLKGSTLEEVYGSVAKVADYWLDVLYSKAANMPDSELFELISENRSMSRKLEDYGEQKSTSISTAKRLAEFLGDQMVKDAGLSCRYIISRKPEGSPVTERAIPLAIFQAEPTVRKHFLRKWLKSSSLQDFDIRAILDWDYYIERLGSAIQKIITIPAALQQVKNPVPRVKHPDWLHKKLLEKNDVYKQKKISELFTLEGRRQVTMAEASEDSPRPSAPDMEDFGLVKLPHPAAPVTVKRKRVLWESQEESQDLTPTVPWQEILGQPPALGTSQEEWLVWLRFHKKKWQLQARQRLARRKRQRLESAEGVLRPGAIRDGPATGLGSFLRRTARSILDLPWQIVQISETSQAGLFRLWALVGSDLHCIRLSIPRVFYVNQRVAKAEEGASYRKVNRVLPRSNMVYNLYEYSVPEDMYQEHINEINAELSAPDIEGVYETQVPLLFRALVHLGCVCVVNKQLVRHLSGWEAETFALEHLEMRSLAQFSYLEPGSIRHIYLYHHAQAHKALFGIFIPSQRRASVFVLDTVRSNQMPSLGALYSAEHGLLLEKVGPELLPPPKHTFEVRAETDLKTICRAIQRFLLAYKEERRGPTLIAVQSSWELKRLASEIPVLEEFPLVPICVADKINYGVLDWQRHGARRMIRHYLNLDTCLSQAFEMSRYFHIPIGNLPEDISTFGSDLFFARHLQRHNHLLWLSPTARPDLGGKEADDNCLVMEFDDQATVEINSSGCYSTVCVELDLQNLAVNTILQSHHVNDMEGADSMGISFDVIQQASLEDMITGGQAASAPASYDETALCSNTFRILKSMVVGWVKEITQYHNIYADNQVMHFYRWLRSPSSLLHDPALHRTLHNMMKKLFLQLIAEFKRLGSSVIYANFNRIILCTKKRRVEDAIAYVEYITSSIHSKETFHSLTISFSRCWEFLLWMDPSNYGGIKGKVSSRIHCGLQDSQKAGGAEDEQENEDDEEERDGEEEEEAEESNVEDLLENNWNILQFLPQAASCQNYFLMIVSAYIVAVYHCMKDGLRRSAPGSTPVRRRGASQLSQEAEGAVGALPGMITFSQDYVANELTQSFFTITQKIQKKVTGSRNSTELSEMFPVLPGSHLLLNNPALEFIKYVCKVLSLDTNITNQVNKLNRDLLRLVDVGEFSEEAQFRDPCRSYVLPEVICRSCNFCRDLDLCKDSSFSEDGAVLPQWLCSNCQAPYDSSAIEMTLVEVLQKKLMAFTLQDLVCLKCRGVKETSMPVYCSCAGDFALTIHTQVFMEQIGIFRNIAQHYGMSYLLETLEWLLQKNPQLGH
# Excerpt: as §1, §2
# [1] = biological target: Cherry salmon DNA polymerase δ (Oncorhynchus masou, UniProt Z9UCE0HTX2); assay: DNA polymerase assay, fish pol δ
# Cherry salmon DNA polymerase δ, sequence (Z9UCE0HTX2 1-856): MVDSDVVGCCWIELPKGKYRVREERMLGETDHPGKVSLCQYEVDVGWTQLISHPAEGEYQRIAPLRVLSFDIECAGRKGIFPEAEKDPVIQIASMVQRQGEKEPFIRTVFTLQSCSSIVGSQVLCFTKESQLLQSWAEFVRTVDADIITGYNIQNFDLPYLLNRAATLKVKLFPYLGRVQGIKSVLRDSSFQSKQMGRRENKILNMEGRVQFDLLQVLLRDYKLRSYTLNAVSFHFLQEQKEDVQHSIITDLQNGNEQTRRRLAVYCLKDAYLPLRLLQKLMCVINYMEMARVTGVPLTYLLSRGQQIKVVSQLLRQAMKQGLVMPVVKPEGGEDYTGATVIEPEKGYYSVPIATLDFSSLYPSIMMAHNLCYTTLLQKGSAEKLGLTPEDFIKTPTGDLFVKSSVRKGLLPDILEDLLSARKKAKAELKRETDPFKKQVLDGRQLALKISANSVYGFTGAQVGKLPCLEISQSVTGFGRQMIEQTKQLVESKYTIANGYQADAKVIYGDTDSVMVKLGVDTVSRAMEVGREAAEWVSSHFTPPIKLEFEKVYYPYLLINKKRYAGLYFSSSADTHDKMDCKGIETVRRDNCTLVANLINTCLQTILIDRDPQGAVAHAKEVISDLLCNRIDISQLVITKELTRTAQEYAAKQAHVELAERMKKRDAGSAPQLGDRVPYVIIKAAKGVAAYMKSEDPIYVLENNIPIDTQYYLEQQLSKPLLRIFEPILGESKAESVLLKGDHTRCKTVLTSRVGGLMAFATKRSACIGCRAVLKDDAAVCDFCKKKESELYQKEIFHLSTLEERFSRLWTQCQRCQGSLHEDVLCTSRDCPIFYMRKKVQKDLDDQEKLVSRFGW
# T4 Polynucleotide kinase = biological target: T3, T4 Polynucleotide kinase (Enterobacteria phage T4, UniProt P06855); assay: T4 polynucleotide kinase assay
# T3 construct: purchased Takara (Kyoto, Japan)
# T3 sequence (P06855 whole entry): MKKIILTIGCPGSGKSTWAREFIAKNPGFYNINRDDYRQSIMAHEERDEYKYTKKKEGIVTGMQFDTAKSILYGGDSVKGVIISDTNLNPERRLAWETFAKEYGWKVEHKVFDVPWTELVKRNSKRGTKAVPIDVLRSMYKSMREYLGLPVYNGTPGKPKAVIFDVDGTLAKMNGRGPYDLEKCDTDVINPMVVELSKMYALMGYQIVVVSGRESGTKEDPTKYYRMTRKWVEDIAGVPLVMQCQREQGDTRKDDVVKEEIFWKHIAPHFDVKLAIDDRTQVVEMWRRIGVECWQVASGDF
# Excerpt: as §1
# The primase activity of calf pol α, the activities of T7 RNA polymerase, T4 polynucleotide kinase and bovine DNase I were measured in standard assays according to the manufacturer's specifications as described by Tamiya-Koizumi et al., Nakayama et al., Soltis et al., and Lu and Sakaguchi, respectively.
smiles,measurement,setting,value
"CC1=CC[C@H]2C(C)(C)CCC[C@]2(C)[C@H]1CCCCCCCCCCCCCCCCC(=O)O (relative stereo) [compound 11, (1S*,4aS*,8aS*)-17-(1,4,4a,5,6,7,8,8a-octahydro-2,5,5,8a-tetramethylnaphthalen-1-yl)heptadecanoic acid]",IC50,Human DNA polymerase γ,8.76 ± 0.44 µM
same,IC50,Human DNA polymerase ε,3.22 ± 0.16 µM
same,IC50,[1],4.3 ± 0.22 µM
same,IC50,T4 Polynucleotide kinase,> 200 µM
